Our source for the EC50 values is patent US8778923B2, “GLP-1 receptor modulators” (Receptos, Inc., priority 2011, dated 2014).

Structures are written as SMILES. Bounds are passed on as bounds.

In the assay the target is T1, GLP-1R (Homo sapiens, UniProt P43220).
T1 construct: host or cells: CRE-bla CHO-K1
Put plainly: EC20 GLP-1(9-36) PAM cAMP assay: dose response of compound in the presence of fixed concentration of GLP-1(9-36). Format: cell-based. The following applies: GLP-1R CRE-bla CHO-K1 cells, compound dose response in presence of fixed concentration of GLP-1(9-36). In a few lines:
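Positive allosteric modulation read as cAMP rise: 12-point compound titration combined with a fixed EC20 level of GLP-1(9-36) on GLP-1R CHO-K1 cells, IBMX present, 30 min at 37 °C. Luminescent HitHunter signal converted to cAMP; nonlinear fit gave EC50 and Emax.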
Background: Changes in cAMP serve as a functional read-out for many G protein-coupled receptors.

T1 sequence (P43220 24-463): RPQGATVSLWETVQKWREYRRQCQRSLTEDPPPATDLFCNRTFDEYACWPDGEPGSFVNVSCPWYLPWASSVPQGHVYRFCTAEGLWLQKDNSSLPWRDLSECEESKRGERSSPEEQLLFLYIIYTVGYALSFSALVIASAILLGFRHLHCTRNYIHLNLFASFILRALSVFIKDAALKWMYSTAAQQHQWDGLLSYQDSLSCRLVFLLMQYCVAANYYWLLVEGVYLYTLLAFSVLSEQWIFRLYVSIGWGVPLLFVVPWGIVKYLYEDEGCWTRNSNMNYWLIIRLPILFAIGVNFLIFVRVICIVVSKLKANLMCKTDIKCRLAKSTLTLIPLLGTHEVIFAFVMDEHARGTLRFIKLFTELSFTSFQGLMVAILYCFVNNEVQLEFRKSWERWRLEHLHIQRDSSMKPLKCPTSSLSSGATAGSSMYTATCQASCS
T1 sequence (P01275 100-127 partner limits assumed): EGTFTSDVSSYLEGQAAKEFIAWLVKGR

Usually EC50 stands for the concentration needed to bring the measured effect to its halfway point. `CC(C)(C)c1ccc(-c2cnc(-c3ccc(C[C@H](NC(=O)c4ccc(C(C)(C)C)s4)C(=O)N[C@H](CO)C(=O)O)cc3)nc2)cc1` [Compound 354]: the concentration giving a half-maximal response (EC50) is less than 0.8 µM.
Next, `CC(C)(C)c1ccc(-c2cnc(-c3ccc(C[C@H](NC(=O)c4ccc(C(C)(C)C)s4)C(=O)N[C@H](CC(=O)O)C(=O)O)cc3)nc2)cc1` [Compound 355]: 0.8 to 2.5 µM; `CC(C)(C)c1ccc(-c2cnc(-c3ccc(C[C@H](NC(=O)c4ccc(C(C)(C)C)s4)C(=O)N[C@H](Cc4cnc[nH]4)C(=O)O)cc3)nc2)cc1` [Compound 356]: 0.8 to 2.5 µM.
Next, `C[C@@H](NC(=O)[C@H](Cc1ccc(-c2ncc(-c3ccc(C(C)(C)C)cc3)cn2)cc1)NC(=O)c1ccc(C(C)(C)C)s1)C(=O)O` [Compound 357]: 0.8 to 2.5 µM; `CC(C)(C)c1ccc(-c2cnc(-c3ccc(C[C@H](NC(=O)c4ccc(C(C)(C)C)s4)C(=O)N4CCC[C@@H]4C(=O)O)cc3)nc2)cc1` [Compound 358]: 0.8 to 2.5 µM.
Consider `CC(C)(C)c1ccc(-c2cnc(-c3ccc(C[C@H](NC(=O)c4ccc(C(C)(C)C)s4)C(=O)N[C@H](CCC(=O)O)C(=O)O)cc3)nc2)cc1` [Compound 359], for which the concentration giving a half-maximal response (EC50) fell in the range of 0.8 to 2.5 µM.
Turning to `CC(C)(C)c1ccc(-c2cnc(-c3ccc(C[C@H](NC(=O)c4ccc(C(C)(C)C)s4)C(=O)N[C@@H](CCC(N)=O)C(=O)O)cc3)nc2)cc1` [Compound 360], the EC50 lay in the range of 0.8 to 2.5 µM.
Next, `CC(C)(C)c1ccc(-c2cnc(-c3ccc(C[C@H](NC(=O)c4ccc(C(C)(C)C)s4)C(=O)N[C@@H](CC(=O)O)C(=O)O)cc3)nc2)cc1` [Compound 361]: 0.8 to 2.5 µM; `CC(C)(C)c1ccc(-c2cnc(-c3ccc(C[C@H](NC(=O)c4ccc(C(C)(C)C)s4)C(=O)N4CCC[C@H]4C(=O)O)cc3)nc2)cc1` [Compound 362]: 2.5 to 5 µM.
Next, `CC(C)(C)c1ccc(-c2cnc(-c3ccc(C[C@H](NC(=O)c4ccc(C(C)(C)C)s4)C(=O)N[C@@H](CCC(=O)O)C(=O)O)cc3)nc2)cc1` [Compound 363]: 0.8 to 2.5 µM.
As for `C[C@H](NC(=O)[C@H](Cc1ccc(-c2ncc(-c3ccc(C(C)(C)C)cc3)cn2)cc1)NC(=O)c1ccc(C(C)(C)C)s1)C(=O)O` [Compound 364], the figure is 0.8 to 2.5 µM; as for `CC(C)(C)c1ccc(-c2cnc(-c3ccc(C[C@H](NC(=O)c4ccc(C(C)(C)C)s4)C(=O)NC(CN4CCCC4)C(=O)O)cc3)nc2)cc1` (stereo partly drawn) [Compound 365], 2.5 to 5 µM; as for `CC(C)(C)c1ccc(-c2cnc(-c3ccc(C[C@H](NC(=O)c4ccc(C(C)(C)C)s4)C(=O)NC(CN)C(=O)O)cc3)nc2)cc1` (stereo partly drawn) [Compound 366], 2.5 to 5 µM.
With `CSCC[C@H](NC(=O)[C@H](Cc1ccc(-c2ncc(-c3ccc(C(C)(C)C)cc3)cn2)cc1)NC(=O)c1ccc(C(C)(C)C)s1)C(=O)O` [Compound 367], the EC50 was in the range of 0.8 to 2.5 µM.
For `CSCC[C@@H](NC(=O)[C@H](Cc1ccc(-c2ncc(-c3ccc(C(C)(C)C)cc3)cn2)cc1)NC(=O)c1ccc(C(C)(C)C)s1)C(=O)O` [Compound 368], the EC50 was less than 0.8 µM.
As for `CCCCCCCOc1ccc(-c2cnc(-c3ccc(C[C@H](NC(=O)c4cnn(C(C)C)c4)C(=O)NCC(=O)O)cc3)nc2)cc1` [Compound 369], the figure is 0.8 to 2.5 µM; as for `CC(C)n1cc(C(=O)N[C@@H](Cc2ccc(-c3ncc(-c4ccc(C(C)(C)C)cc4)cn3)cc2)C(=O)NCC(=O)O)cn1` [Compound 370], 0.8 to 2.5 µM.
For the compound `CCCCCCCOc1ccc(-c2cnc(-c3ccc(C[C@H](NC(=O)c4ncc(C(C)(C)C)s4)C(=O)NCC(=O)O)cc3)nc2)cc1` [Compound 371], the concentration for a half-maximal effect (EC50) was less than 0.8 µM.
For the compound `CCCCCCCOc1ccc(-c2cnc(-c3ccc(C[C@H](NC(=O)c4cnn(C(C)(C)C)c4)C(=O)NCC(=O)O)cc3)nc2)cc1` [Compound 372], the concentration giving a half-maximal response (EC50) is less than 0.8 µM.
`CC(C)(C)c1ccc(-c2cnc(-c3ccc(C[C@@H](NC(=O)c4ccc(C(C)(C)C)s4)C(=O)NCC(=O)O)cc3)nc2)cc1` [Compound 373]: the EC50 fell in the range of 0.8 to 2.5 µM.
As to `CCCCCCCOc1ccc(-c2cnc(-c3ccc(C[C@@H](NC(=O)c4ccc(C(C)(C)C)s4)C(=O)N[C@@H](C)C(=O)O)cc3)nc2)cc1` [Compound 374], the 50% effective concentration (EC50) lay in the range of 0.8 to 2.5 µM.
For `CCCCCCCOc1ccc(-c2cnc(-c3ccc(C[C@@H](NC(=O)c4ccc(C(C)(C)C)s4)C(=O)N[C@H](C)C(=O)O)cc3)nc2)cc1` [Compound 375], the 50% effective concentration (EC50) is less than 0.8 µM.
As for `CCCCCCCOc1ccc(-c2cnc(-c3ccc(C[C@@H](NC(=O)c4ccc(C(C)(C)C)s4)C(=O)NCC(=O)O)cc3)nc2)cc1` [Compound 376], the figure is 0.8 to 2.5 µM.
As for `CCCCCCCOc1ccc(-c2cnc(-c3ccc(C[C@@H](NC(=O)c4ccc(C(C)(C)C)s4)C(=O)N[C@@H](CCC(N)=O)C(=O)O)cc3)nc2)cc1` [Compound 377], the figure is less than 0.8 µM.
For the compound `CCCCCCCOc1ccc(-c2cnc(-c3ccc(C[C@@H](NC(=O)c4ccc(C(C)(C)C)s4)C(=O)N[C@@H](CO)C(=O)O)cc3)nc2)cc1` [Compound 378], the EC50 is less than 0.8 µM.
On to `CCCCCCCOc1ccc(-c2cnc(-c3ccc(C[C@@H](NC(=O)c4ccc(C(C)(C)C)s4)C(=O)N[C@H](CO)C(=O)O)cc3)nc2)cc1` [Compound 379], for which the half-maximal effective concentration (EC50) is less than 0.8 µM.
As to `CCCCCCCOc1ccc(-c2cnc(-c3ccc(C[C@H](NC(=O)c4ccc(C(C)(C)C)cc4)C(=O)NCC(=O)NS(C)(=O)=O)cc3)nc2)cc1` [Compound 381, (S)-4-(tert-butyl)-N-(3-(4-(5-(4-(heptyloxy)phenyl)pyrimidin-2-yl)phenyl)-1-((2-(methylsulfonamido)-2-oxoethyl)amino)-1-oxopropan-2-yl)benzamide], the EC50 was in the range of 0.8 to 2.5 µM.
